US5476944A, “Derivatives of cyclic phenolic thioethers” (G. D. Searle & Co., priority 1994, dated 1995)

Legend:
cellular COX-II = target: T1, cellular COX-II (Homo sapiens, UniProt P35354); assay: Cellular COX-II Assay (Cell Fibroblast Assay), IL-1 stimulated human fetal dermal fibroblasts, PGE2; format: cell-based; conditions: IL-1 beta stimulated human fetal dermal fibroblasts
T1 construct: stimulated human fetal dermal fibroblasts (HFDF, derived from primary cell cultures); endogenous in cells; host or cells: human fetal dermal fibroblasts (HFDF), primary, stimulated with IL-1 beta
T1 sequence (P35354 18-604): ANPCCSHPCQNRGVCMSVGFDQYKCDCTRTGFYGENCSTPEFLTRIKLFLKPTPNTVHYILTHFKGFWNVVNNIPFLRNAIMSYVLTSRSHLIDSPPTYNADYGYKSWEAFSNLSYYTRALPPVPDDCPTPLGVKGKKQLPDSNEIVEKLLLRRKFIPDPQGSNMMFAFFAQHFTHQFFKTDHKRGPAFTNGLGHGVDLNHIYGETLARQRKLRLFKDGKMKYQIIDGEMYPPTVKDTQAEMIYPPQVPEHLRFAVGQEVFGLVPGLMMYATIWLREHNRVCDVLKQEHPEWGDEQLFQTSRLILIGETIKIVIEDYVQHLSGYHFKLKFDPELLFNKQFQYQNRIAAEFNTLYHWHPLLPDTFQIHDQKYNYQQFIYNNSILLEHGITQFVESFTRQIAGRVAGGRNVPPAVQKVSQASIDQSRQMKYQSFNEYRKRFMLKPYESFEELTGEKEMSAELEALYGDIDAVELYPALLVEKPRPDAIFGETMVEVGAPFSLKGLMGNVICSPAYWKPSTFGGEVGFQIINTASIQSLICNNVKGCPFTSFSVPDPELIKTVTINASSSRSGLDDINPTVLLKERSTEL
Description: The compounds of the invention are evaluated with respect to the inhibition of cellular COX-II in vitro according to the following Cellular COX-II Assay (Cell Fibroblast Assay).
Cellular COX-II Assay (Cell Fibroblast Assay)
Inhibition of cellular COX-II by test compounds is determined using stimulated human fetal dermal fibroblasts (HFDF, derived from primary cell cultures). Fibroblasts are cultured in microtiter wells at 1.5×10^4 cells/well in Dulbecco's Modified Eagle's Media (DMEM)(Gibco/BRL, Gaithersburg, Md. Sigma Chemical Co., St. Louis, Mo.) containing 4500 mg glucose/L, 100 units penicillin G/ml and 0.1 mg streptomycin/ml, 4 mM L-glutamine, 25 mM Hepes and 10% Fetal Bovine Serum (Gibco/BRL, Gaithersburg, Md. Bioproducts For Science, Inc., Indianapolis,Ind.). Following a 3-day incubation at 37° C., the culture media is removed by aspiration using low vacuum, and the cells are stimulated overnight with medium containing human recombinant IL-1 (interleukin-1) beta (1 ng/ml)(Cistron, Pine Brook, N.J.). The next day, the fibroblasts are washed with Phosphate Buffered Saline, and 185 μl of DMEM is added to each well. The cells are placed in a 37° C. incubator for 15 minutes. Compounds are then added to the cells using seven half-log dilutions in duplicate determinations. Cells are incubated with test compounds at 37° C. for 30 minutes. The COX-II substrate arachidonic acid (20 μM; Nu-Chek-Prep Inc., Elysian, Minn.) is then added to the cell cultures and the plates are incubated for 10 minutes at 37° C. Supernatants are collected and Prostaglandin E2 (PGE2) production is measured by an enzyme-linked immunosorbent assay (ELISA; antibodies produced by Cayman Chemical Company, Ann Arbor, Mich.). […] PG,60
The following is a description of how the activities of the compounds of the present invention may be determined.
A run of this assay consists of one (or more) plates, each containing, along with the standard (in row A), (1) two wells of unstimulated material (in col. 12), (2) five wells of stimulated material (in col. 12), (3) seven wells (one per concentration) for indomethacin (in col. 11), and (4) two wells at each of seven concentrations for five test compounds, one of which is a repeat of indomethacin. The response (ng/ml Eicosanoid) is estimated from the Standard curve and is highest at low concentrations and decreases as the concentration increases. If the response is plotted on the y-axis and the log of the concentration is plotted on the x-axis, the dose-response pattern for these assays is typically a symmetrical, sigmoidal shaped curve. If a full range of concentrations is used, the complete sigmoidal curve may be seen, starting with an upper asymptote, falling at some degree of steepness, and then leveling off at a lower asymptote. The IC50 is defined as the concentration corresponding to a response midway between the upper and lower plateaus. A theoretic "dose-response" model is used to estimate the IC50.
The procedure described below was used to define the minimum and maximum responses for the compounds on a plate.
The procedure uses information for indomethacin and the rest of the plate in defining the minimum and maximum response. The justification for doing this is as follows. Enough runs have been done with indomethacin to determine and use a range of concentrations such that the response to the lowest concentrations is on the upper plateau of the sigmoidal curve and the response to the highest concentrations is on the lower plateau of the sigmoidal curve. For the other compounds, if a response is measured which is less than the response for the unstimulated wells, then this response may be considered to be another estimate of a minimal response. Likewise, if a response is measured which is greater than the response for the stimulated wells, then this response may be considered to be another estimate of a maximal response. Based on this reasoning, the minimum is estimated as follows: […]

COX-I = target: T2, COX-I (Homo sapiens, UniProt P23219); assay: Human Enzyme Assay, recombinant COX-I (PGE2 ELISA); format: biochemical
T2 construct: made in house; host or cells: SF9 insect cells, recombinant baculovirus (pVL1393); coding fragment from Cayman Chemical
Description: (§1) The compounds of the invention are evaluated with respect to COX-I and COX-II activity in vitro using an enzyme based assay according to the following assay procedure.
(§2) (a) Preparation of Recombinant COX Baculoviruses
(§3) A 2.0 kb fragment containing the coding region for either human or murine COX-I (Caymen Chemical, Ann Arbor, Mich.), or human or murine COX-II (Caymen Chemical, Ann Arbor, Mich.), was cloned into a BamH1 site of the baculovirus transfer vector pVL1393 (Invitrogen, Palo Alto, Calif.) to generate a baculovirus transfer vector. Recombinant baculoviruses were isolated by transfecting 4 μg of baculovirus transfer vector DNA into SF9 cells (2×10e8) (Invitrogen, Palo Alto, Calif.) along with 200 ng of linearized bacium by the phosphate method. See M. D. Summers et al., "A Manual of Methods for Baculovirus Vectors and Insect Cell Culture Procedure," TEXAS AGRICULTURE EXPERIMENTAL STATION BULLETIN, No. 1555 (1987), which is incorporated herein by reference. Recombinant viruses were purified by three rounds of plaque purification, and high titer (10e7-10e8 pfu/ml) stocks of virus were prepared. For large scale production, SF9 insect cells (Invitrogen, Palo Alto, Calif.) were infected in 10 liter fermentors (0.5×10^6 /ml) with the recombinant baculovirus stock, such that the multiplicity of infection was 0.1. After 72 hours, the cells were centrifuged and the cell pellet was homogenized in Tris/Sucrose (50 mM: 25%, pH 8.0) containing 1% CHAPS. The homogenate was centrifuged at 10,000×G for 30 minutes, and the resultant supernatant was stored at -80° C. before being assayed for COX activity.
(§4) b. Assay for COX-I and COX-II activity:
(§5) COX activity was assayed as PGE2 formed/μg protein/time using an ELISA (Caymen Chemical, Ann Arbor, Mich.) to detect the prostaglandin E2 released. CHAPS-solubilized insect cell membranes containing the appropriate COX enzyme were incubated in a potassium phosphate buffer (50 mM, pH 8.0) containing phenol (0.5 mM), and heme (1 μM) with the addition of arachidonic acid (10 μM). Compounds of the present invention were pre-incubated with the enzyme for 10-20 minutes prior to the addition of the COX-I and COX-II enzyme substrate arachidonic acid (10 μM). Any reaction between the arachidonic acid and the enzyme was stopped after ten minutes at 37° C./room temperature by transferring 40 μl of reaction mix into […] ELISA buffer and 25 μM indomethacin. The PGE2 formed was measured by standard ELISA technology (Cayman Chemical, Ann Arbor, Mich.).
(§6) The results for this assay, as well as for the next assay (COX-II Cell Fibroblast Assay) are expressed in terms of COX-I or II activity as an IC50 value (50% inhibitory concentration), as defined as the amount of prostaglandin E2 (PGE2) formed per protein per time in response to the enzyme substrate arachidonic acid.

COX-II = target: T3, COX-II (Homo sapiens, UniProt P35354); assay: Human Enzyme Assay, recombinant COX-II (PGE2 ELISA); format: biochemical
T3 construct: made in house; host or cells: SF9 insect cells, recombinant baculovirus (pVL1393); coding fragment from Cayman Chemical
T3 sequence (P35354 18-604): T1 sequence (P35354 18-604)
Description: as §1, §2, §3, §4, §5, §6

T2 sequence (P23219 24-599): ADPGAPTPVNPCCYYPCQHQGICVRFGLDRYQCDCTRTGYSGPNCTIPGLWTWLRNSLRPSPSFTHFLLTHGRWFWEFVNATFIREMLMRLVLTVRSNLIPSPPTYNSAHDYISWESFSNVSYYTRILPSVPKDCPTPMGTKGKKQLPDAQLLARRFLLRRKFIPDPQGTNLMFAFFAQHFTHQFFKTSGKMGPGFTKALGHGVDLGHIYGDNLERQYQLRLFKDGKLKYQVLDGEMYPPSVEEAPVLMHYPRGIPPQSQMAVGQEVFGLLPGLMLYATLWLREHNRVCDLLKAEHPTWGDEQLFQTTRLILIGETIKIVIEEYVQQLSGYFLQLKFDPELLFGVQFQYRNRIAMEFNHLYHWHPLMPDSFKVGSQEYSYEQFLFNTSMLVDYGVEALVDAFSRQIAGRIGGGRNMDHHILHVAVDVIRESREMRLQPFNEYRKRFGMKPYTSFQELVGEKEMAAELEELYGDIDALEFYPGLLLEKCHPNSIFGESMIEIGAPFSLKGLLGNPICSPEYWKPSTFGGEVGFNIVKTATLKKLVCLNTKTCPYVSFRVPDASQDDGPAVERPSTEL

SMILES	IC50 (cellular COX-II) [nM]	IC50 (COX-I) [nM]	IC50 (COX-II) [nM]
CC(C)(C)c1ccc(S[C@H]2CCC[C@H]2OCC(=O)O)c(C(C)(C)C)c1 (racemic) [Example 80, (±)cis-2-[[2-[[2,4-bis(1,1-dimethylethyl)phenyl]thio]cyclopentyl]oxy]acetic acid]	602	28500	937
CC(C)(C)c1ccc(S[C@@H]2CCC[C@H]2OCC(=O)O)c(C(C)(C)C)c1 (racemic) [Example 81, (±)trans-2-[[2-[[2,4-bis(1,1-dimethylethyl)phenyl]-thio]cyclopentyl]oxy]acetic acid]	438	94600	1430
CC(C)(C)c1cc(S[C@@H]2CCC[C@H]2OCC(=O)O)cc(C(C)(C)C)c1 (relative stereo) [Example 76, (±)trans-2-[[2-[[3,5-bis(1,1-dimethylethyl)phenyl]thio]cyclopentyl]oxy]acetic acid]	5590	> 100000	> 100000
CC(C)(C)c1cc(S[C@H]2CCC[C@H]2OCC(=O)O)cc(C(C)(C)C)c1 (relative stereo) [Example 77]	170	> 100000	5160
CC(C)(C)c1ccc(O[C@@H]2CCC[C@H]2OCC(=O)O)c(C(C)(C)C)c1 (relative stereo) [Example 101, trans-2-[[2-[2,4-bis(1,1-dimethylethyl)phenoxy]cyclopentyl]oxy]acetic acid]	840	> 100000	> 100000
CC(C)(C)c1cc(S[C@H]2CCC[C@H]2OCC(=O)O)cc(C(C)(C)C)c1 (single isomer, unassigned) [Example 84, (+)cis-2-[[2-[[3,5-bis(1,1-dimethylethyl)phenyl]thio]cyclopentyl]oxy]aceticacid]	420	> 100000	3700
CC(C)(C)c1cc(S[C@H]2CCC[C@H]2OCC(=O)O)cc(C(C)(C)C)c1 (single isomer, unassigned) [Example 85, (-)cis-2-[[2-[[3,5-bis(1,1-dimethylethyl)phenyl]thio]cyclopentyl]oxy]aceticacid]	163	–	2500
CC(C)(C)c1cc(S[C@@H]2CCCC[C@H]2OCC(=O)O)cc(C(C)(C)C)c1 (single isomer, unassigned) [Example 89, (-)trans-2-[[2-[[3,5-bis(1,1-dimethylethyl)phenyl]thio]cyclohexyl]oxy]acetic acid]	576	> 100000	3400
CC(C)(C)c1ccc(S[C@@H]2CCC[C@H]2OCC(=O)O)c(C(C)(C)C)c1 (single isomer, unassigned) [Example 92, (+)trans-2-[[2-[[2,4-bis(1,1-dimethylethyl)phenyl]thio]cyclopentyl]oxy]acetic acid]	246	> 100000	3880
CC(C)(C)c1ccc(S[C@@H]2CCC[C@H]2OCC(=O)O)c(C(C)(C)C)c1 (single isomer, unassigned) [Example 93, (-)trans-2-[[2-[[2,4-bis(1,1-dimethylethyl)phenyl]thio]cyclopentyl]oxy]acetic acid]	334	> 100000	7660
CC(C)(C)c1ccc(S[C@H]2CCC[C@H]2OCC(=O)O)c(C(C)(C)C)c1 (single isomer, unassigned) [Example 97, (-)cis-2-[[2-[[2,4-bis(1,1-dimethylethyl)phenyl]thio]cyclopentyl]oxy]aceticacid]	227	92100	2000
